# What was measured:
# [1] = Table S2; cited from earlier work
# [2] = test system: rainbow trout (Oncorhynchus mykiss); test: Contribution of tissues to fish body burden; assay type: in vivo; settings: for Contribution of Blood to the fish's body burden / Contribution of Gills to the fish's body burden / Contribution of Liver to the fish's body burden / Contribution of Mucus to the fish's body burden / Contribution of Other tissue (all apart from blood, liver, gills and skin; muscle concentration assumed) to body burden / Contribution of Skin to the fish's body burden: fraction; for % contribution to body burden, Gills / % contribution to body burden, Mucus / % contribution to body burden, Liver / % contribution to body burden, Skin / % contribution to body burden, Muscle: mean across fish, Figure 1; for % contribution to body burden, Liver / % contribution to body burden, Skin / % contribution to body burden, Muscle: Q10, Q14 maximum estimates; for % contribution to body burden, Muscle: includes all tissues not specifically analyzed
# From the text: To calculate the quantity of the test chemical in the different tissues, the amount of each tissue in the fish was estimated and multiplied by the concentration in that tissue. The test chemical quantities in the different tissues were then summed to give the body burden in each fish. The total weight of the fish and the weight of the liver and gills were available from the dissection (Table S16). For skin and mucus, the estimated outer surface area of the fish was used. We note that the distinction between mucus and skin is an operational one determined by the extraction method; mucus can be viewed as a more readily extracted fraction of the test chemical residues at the fish surface. The volume of blood was taken as 0.0495 mL g^–1 fish.[30] The remaining tissue (difference between the weight of the whole fish and the weight of liver, gills, skin, and blood) was assumed to have the concentration measured in the muscle. The contribution of the different tissues to the body burden is given for each fish in Table S17, and the average contribution across all fish is plotted in Figure 1. All of the tissues, with the exception of blood, contribute at least 10% of the body burden for at least half of the test chemicals. There is no consistent negative correlation between the fraction of chemical associated with blood, muscle, and liver (tissues where the residue originates entirely from systemic uptake) and alkyl chain length (a measure of hydrophobicity). Thus, although adsorption to fish surfaces appears to play a significant role, its contribution to body burden cannot be simply predicted from surfactant hydrophobicity. In the following, we examine uptake in individual tissues.
# [3] = test system: rainbow trout (Oncorhynchus mykiss); test: Apparent bioconcentration factor at end of 7-day exposure; assay type: in vivo
# Description: Apparent BCFs (BCFapp) at the end of the 7-day exposure were calculated by dividing the surfactant body burden (including mucus) by the fish mass, and dividing this by the average measured concentration in water samples taken during the exposure phase. The BCFapp values ranged from 0.1 to 1260 (Table S18). Given the short exposure period, it is possible that the fish in this study had not approached steady state, in particular with respect to the distribution between water and internal tissues and between water and skin, and that the steady-state BCFs are higher. […] We note that some improvements in the methodology would be helpful, particularly with respect to the stability of the aqueous exposure concentration of the longest chain surfactants. Working with mixtures of analogue cationic surfactants allowed for consistent evaluation of differences in accumulation trends due to structural features.
structure (smiles),measurement,setting,value
"CCCCCCCCCN [P9, Nonylamine]",pKa,[1],10.5
same,Contribution of Blood to the fish's body burden,[2]; Fish #1,0.016
same,Contribution of Gills to the fish's body burden,[2]; Fish #1,0.36
same,Contribution of Liver to the fish's body burden,[2]; Fish #1,0.09
same,Contribution of Mucus to the fish's body burden,[2]; Fish #1,0.38
same,"Contribution of Other tissue (all apart from blood, liver, gills and skin; muscle concentration assumed) to body burden",[2]; Fish #1,0.08
same,Contribution of Skin to the fish's body burden,[2]; Fish #1,0.07
same,Contribution of Blood to the fish's body burden,[2]; Fish #2,0.017
same,Contribution of Gills to the fish's body burden,[2]; Fish #2,0.26
same,Contribution of Liver to the fish's body burden,[2]; Fish #2,0.20
same,Contribution of Mucus to the fish's body burden,[2]; Fish #2,0.23
same,"Contribution of Other tissue (all apart from blood, liver, gills and skin; muscle concentration assumed) to body burden",[2]; Fish #2,0.14
same,Contribution of Skin to the fish's body burden,[2]; Fish #2,0.15
same,Contribution of Blood to the fish's body burden,[2]; Fish #3,0.021
same,Contribution of Liver to the fish's body burden,[2]; Fish #3,0.17
same,Contribution of Mucus to the fish's body burden,[2]; Fish #3,0.20
same,"Contribution of Other tissue (all apart from blood, liver, gills and skin; muscle concentration assumed) to body burden",[2]; Fish #3,0.14
same,Contribution of Skin to the fish's body burden,[2]; Fish #3,0.16
same,Contribution of Blood to the fish's body burden,[2]; Fish #4,0.010
same,Contribution of Gills to the fish's body burden,[2]; Fish #4,0.28
same,Contribution of Liver to the fish's body burden,[2]; Fish #4,0.19
same,Contribution of Mucus to the fish's body burden,[2]; Fish #4,0.28
same,"Contribution of Other tissue (all apart from blood, liver, gills and skin; muscle concentration assumed) to body burden",[2]; Fish #4,0.12
same,Contribution of Skin to the fish's body burden,[2]; Fish #4,0.11
same,Contribution of Blood to the fish's body burden,[2]; Fish #5,0.012
same,Contribution of Gills to the fish's body burden,[2]; Fish #5,0.35
same,Contribution of Liver to the fish's body burden,[2]; Fish #5,0.08
same,Contribution of Mucus to the fish's body burden,[2]; Fish #5,0.36
same,"Contribution of Other tissue (all apart from blood, liver, gills and skin; muscle concentration assumed) to body burden",[2]; Fish #5,0.12
same,Contribution of Skin to the fish's body burden,[2]; Fish #5,0.09
same,Contribution of Blood to the fish's body burden,[2]; Fish #6,0.018
same,Contribution of Gills to the fish's body burden,[2]; Fish #6,0.26
same,Contribution of Liver to the fish's body burden,[2]; Fish #6,0.08
same,Contribution of Mucus to the fish's body burden,[2]; Fish #6,0.35
same,"Contribution of Other tissue (all apart from blood, liver, gills and skin; muscle concentration assumed) to body burden",[2]; Fish #6,0.10
same,Contribution of Skin to the fish's body burden,[2]; Fish #6,0.19
same,Contribution of Blood to the fish's body burden,[2]; Mean,0.016
same,Contribution of Gills to the fish's body burden,[2]; Mean,0.30
same,Contribution of Liver to the fish's body burden,[2]; Mean,0.14
same,Contribution of Mucus to the fish's body burden,[2]; Mean,0.30
same,"Contribution of Other tissue (all apart from blood, liver, gills and skin; muscle concentration assumed) to body burden",[2]; Mean,0.12
same,Contribution of Skin to the fish's body burden,[2]; Mean,0.13
same,"% contribution to body burden, Gills",[2],30%
same,"% contribution to body burden, Mucus",[2],30%
same,"% contribution to body burden, Liver",[2],14%
same,"% contribution to body burden, Skin",[2],13%
same,"% contribution to body burden, Muscle",[2],12%
same,Apparent bioconcentration factor (BCFapp),"[3]; end of 7-day exposure, body burden including mucus",3.3 L kg-1 wet weight
"CCCCCCCCCCCCN [P12, Dodecylamine]",pKa,[1],10.5
same,Contribution of Blood to the fish's body burden,[2]; Fish #1,0.014
same,Contribution of Gills to the fish's body burden,[2]; Fish #1,0.34
same,Contribution of Liver to the fish's body burden,[2]; Fish #1,0.16
same,Contribution of Mucus to the fish's body burden,[2]; Fish #1,0.19
same,"Contribution of Other tissue (all apart from blood, liver, gills and skin; muscle concentration assumed) to body burden",[2]; Fish #1,0.15
same,Contribution of Skin to the fish's body burden,[2]; Fish #1,0.14
same,Contribution of Blood to the fish's body burden,[2]; Fish #2,0.015
same,Contribution of Gills to the fish's body burden,[2]; Fish #2,0.24
same,Contribution of Liver to the fish's body burden,[2]; Fish #2,0.22
same,Contribution of Mucus to the fish's body burden,[2]; Fish #2,0.12
same,"Contribution of Other tissue (all apart from blood, liver, gills and skin; muscle concentration assumed) to body burden",[2]; Fish #2,0.16
same,Contribution of Skin to the fish's body burden,[2]; Fish #2,0.25
same,Contribution of Blood to the fish's body burden,[2]; Fish #3,0.017
same,Contribution of Liver to the fish's body burden,[2]; Fish #3,0.20
same,Contribution of Mucus to the fish's body burden,[2]; Fish #3,0.11
same,"Contribution of Other tissue (all apart from blood, liver, gills and skin; muscle concentration assumed) to body burden",[2]; Fish #3,0.16
same,Contribution of Skin to the fish's body burden,[2]; Fish #3,0.23
same,Contribution of Blood to the fish's body burden,[2]; Fish #4,0.011
same,Contribution of Gills to the fish's body burden,[2]; Fish #4,0.26
same,Contribution of Liver to the fish's body burden,[2]; Fish #4,0.24
same,Contribution of Mucus to the fish's body burden,[2]; Fish #4,0.14
same,"Contribution of Other tissue (all apart from blood, liver, gills and skin; muscle concentration assumed) to body burden",[2]; Fish #4,0.16
same,Contribution of Skin to the fish's body burden,[2]; Fish #4,0.19
same,Contribution of Blood to the fish's body burden,[2]; Fish #5,0.010
same,Contribution of Gills to the fish's body burden,[2]; Fish #5,0.32
same,Contribution of Liver to the fish's body burden,[2]; Fish #5,0.12
same,Contribution of Mucus to the fish's body burden,[2]; Fish #5,0.17
same,"Contribution of Other tissue (all apart from blood, liver, gills and skin; muscle concentration assumed) to body burden",[2]; Fish #5,0.20
same,Contribution of Skin to the fish's body burden,[2]; Fish #5,0.18
same,Contribution of Blood to the fish's body burden,[2]; Fish #6,0.018
same,Contribution of Gills to the fish's body burden,[2]; Fish #6,0.26
same,Contribution of Liver to the fish's body burden,[2]; Fish #6,0.16
same,Contribution of Mucus to the fish's body burden,[2]; Fish #6,0.18
same,"Contribution of Other tissue (all apart from blood, liver, gills and skin; muscle concentration assumed) to body burden",[2]; Fish #6,0.12
same,Contribution of Skin to the fish's body burden,[2]; Fish #6,0.26
same,Contribution of Blood to the fish's body burden,[2]; Mean,0.014
same,Contribution of Gills to the fish's body burden,[2]; Mean,0.28
same,Contribution of Liver to the fish's body burden,[2]; Mean,0.19
same,Contribution of Mucus to the fish's body burden,[2]; Mean,0.15
same,"Contribution of Other tissue (all apart from blood, liver, gills and skin; muscle concentration assumed) to body burden",[2]; Mean,0.16
same,Contribution of Skin to the fish's body burden,[2]; Mean,0.21
same,"% contribution to body burden, Gills",[2],28%
same,"% contribution to body burden, Mucus",[2],15%
same,"% contribution to body burden, Liver",[2],19%
same,"% contribution to body burden, Skin",[2],21%
same,"% contribution to body burden, Muscle",[2],16%
same,Apparent bioconcentration factor (BCFapp),"[3]; rainbow trout (Oncorhynchus mykiss), in vivo, 7 d, pH 7.5",230 L kg-1 wet weight
"CCCCCCCCCCCCCCCCN [P16, hexadecylamine]",pKa,[1],10.5
same,Contribution of Blood to the fish's body burden,[2]; Fish #1,0.013
same,Contribution of Gills to the fish's body burden,[2]; Fish #1,0.62
same,Contribution of Liver to the fish's body burden,[2]; Fish #1,0.11
same,Contribution of Mucus to the fish's body burden,[2]; Fish #1,0.04
same,"Contribution of Other tissue (all apart from blood, liver, gills and skin; muscle concentration assumed) to body burden",[2]; Fish #1,0.14
same,Contribution of Skin to the fish's body burden,[2]; Fish #1,0.08
same,Contribution of Blood to the fish's body burden,[2]; Fish #2,0.011
same,Contribution of Gills to the fish's body burden,[2]; Fish #2,0.57
same,Contribution of Liver to the fish's body burden,[2]; Fish #2,0.14
same,Contribution of Mucus to the fish's body burden,[2]; Fish #2,0.03
same,"Contribution of Other tissue (all apart from blood, liver, gills and skin; muscle concentration assumed) to body burden",[2]; Fish #2,0.13
same,Contribution of Skin to the fish's body burden,[2]; Fish #2,0.12
same,Contribution of Blood to the fish's body burden,[2]; Fish #3,0.012
same,Contribution of Liver to the fish's body burden,[2]; Fish #3,0.12
same,Contribution of Mucus to the fish's body burden,[2]; Fish #3,0.04
same,"Contribution of Other tissue (all apart from blood, liver, gills and skin; muscle concentration assumed) to body burden",[2]; Fish #3,0.15
same,Contribution of Skin to the fish's body burden,[2]; Fish #3,0.10
same,Contribution of Blood to the fish's body burden,[2]; Fish #4,0.010
same,Contribution of Gills to the fish's body burden,[2]; Fish #4,0.50
same,Contribution of Liver to the fish's body burden,[2]; Fish #4,0.15
same,Contribution of Mucus to the fish's body burden,[2]; Fish #4,0.04
same,"Contribution of Other tissue (all apart from blood, liver, gills and skin; muscle concentration assumed) to body burden",[2]; Fish #4,0.18
same,Contribution of Skin to the fish's body burden,[2]; Fish #4,0.12
same,Contribution of Blood to the fish's body burden,[2]; Fish #5,0.008
same,Contribution of Gills to the fish's body burden,[2]; Fish #5,0.65
same,Contribution of Liver to the fish's body burden,[2]; Fish #5,0.08
same,Contribution of Mucus to the fish's body burden,[2]; Fish #5,0.05
same,"Contribution of Other tissue (all apart from blood, liver, gills and skin; muscle concentration assumed) to body burden",[2]; Fish #5,0.11
same,Contribution of Skin to the fish's body burden,[2]; Fish #5,0.10
same,Contribution of Blood to the fish's body burden,[2]; Fish #6,0.016
same,Contribution of Gills to the fish's body burden,[2]; Fish #6,0.58
same,Contribution of Liver to the fish's body burden,[2]; Fish #6,0.11
same,Contribution of Mucus to the fish's body burden,[2]; Fish #6,0.06
same,"Contribution of Other tissue (all apart from blood, liver, gills and skin; muscle concentration assumed) to body burden",[2]; Fish #6,0.11
same,Contribution of Skin to the fish's body burden,[2]; Fish #6,0.13
same,Contribution of Blood to the fish's body burden,[2]; Mean,0.012
same,Contribution of Gills to the fish's body burden,[2]; Mean,0.58
same,Contribution of Liver to the fish's body burden,[2]; Mean,0.12
same,Contribution of Mucus to the fish's body burden,[2]; Mean,0.04
same,"Contribution of Other tissue (all apart from blood, liver, gills and skin; muscle concentration assumed) to body burden",[2]; Mean,0.13
same,Contribution of Skin to the fish's body burden,[2]; Mean,0.11
same,Share of body burden present in gills and mucus,[2]; in vivo,at least 50%
same,"% contribution to body burden, Gills",[2],58%
same,"% contribution to body burden, Mucus",[2],4%
same,"% contribution to body burden, Liver",[2],12%
same,"% contribution to body burden, Skin",[2],11%
same,"% contribution to body burden, Muscle",[2],13%
